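Test compounds were applied to cells in 96-well plates for 48 hours at 5 doses. Definition used: TGI = concentration required for complete inhibition of growth.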
Columns and labels:
Assay in all cases: NCI tumour cell line growth inhibition, 48 h
[1] = test system: RPMI-8226 leukemia
[2] = test system: OVCAR-4 ovarian
[3] = test system: OVCAR-3 ovarian
[4] = test system: NCI-H522 lung
[5] = test system: A498 renal
[6] = test system: SNB-19 CNS
[7] = test system: OVCAR-8 ovarian
[8] = test system: SN12C renal
[9] = test system: ACHN renal
[10] = test system: HCT-116 colon
[11] = test system: CAKI-1 renal
[12] = test system: UACC-62 melanoma

Question: What does the source list for `O=C(n1c(=O)n(-c2ccc(Cl)cc2)c(=O)n1C(=O)C(Cl)(Cl)Cl)C(Cl)(Cl)Cl`?
Answer: TGI [1]: > 100 µM; TGI [2]: > 100 µM; TGI [3]: > 100 µM; TGI [4]: > 100 µM; TGI [5]: > 100 µM; TGI [6]: > 100 µM; TGI [7]: > 100 µM; TGI [8]: > 100 µM; TGI [9]: > 100 µM; TGI [10]: > 100 µM; TGI [11]: > 100 µM; TGI [12]: > 100 µM

Question: `Cc1ccc(/C(O)=C/c2nc3ccccc3[nH]c2=O)c(C)c1` was tested. Which TGI [1] did it give?
Answer: The TGI was > 100 µM.

Question: What about the TGI [2] of the same compound?
Answer: Its TGI is 6.17 µM.

Question: What about the TGI [3] of the same compound?
Answer: The TGI was > 73.7 µM.

Question: And the TGI [4]?
Answer: Its TGI is 38.4 µM.

Question: What about the TGI [5] of the same compound?
Answer: Its TGI is 9.12 µM.

Question: And the TGI [6]?
Answer: Its TGI is > 45.9 µM.

Question: What about the TGI [7] of the same compound?
Answer: Its TGI is 25.4 µM.

Question: What about the TGI [8] of the same compound?
Answer: Its TGI is 69.2 µM.

Question: What about the TGI [9] of the same compound?
Answer: The TGI was 30 µM.

Question: What about the TGI [10] of the same compound?
Answer: The TGI was 55.8 µM.

Question: And the TGI [11]?
Answer: Its TGI is 18.3 µM.

Question: And the TGI [12]?
Answer: The TGI was 43.7 µM.

Question: For `O/N=C1\CCc2cc3c(cc21)CCC3`, which TGI [1] is on record?
Answer: The TGI was > 100 µM.

Question: And the TGI [2]?
Answer: Its TGI is > 100 µM.

Question: And the TGI [3]?
Answer: The TGI was > 100 µM.

Question: What about the TGI [4] of the same compound?
Answer: The TGI was > 100 µM.

Question: And the TGI [5]?
Answer: The TGI was > 100 µM.

Question: What about the TGI [6] of the same compound?
Answer: Its TGI is > 100 µM.

Question: And the TGI [7]?
Answer: Its TGI is > 100 µM.

Question: What about the TGI [8] of the same compound?
Answer: The TGI was > 100 µM.

Question: And the TGI [9]?
Answer: Its TGI is > 100 µM.

Question: What about the TGI [10] of the same compound?
Answer: Its TGI is > 100 µM.

Question: What about the TGI [11] of the same compound?
Answer: The TGI was > 100 µM.

Question: And the TGI [12]?
Answer: The TGI was > 100 µM.

Question: How did the TGI [1] turn out when `O=C(OC(/C=C/c1ccccc1)P1(=O)N(Cc2ccccc2)[C@@H]2CCCC[C@H]2N1Cc1ccccc1)c1ccccc1` (some centres undefined) was run?
Answer: Its TGI is 6.53 µM.

Question: What about the TGI [2] of the same compound?
Answer: The TGI was > 100 µM.

Question: What about the TGI [3] of the same compound?
Answer: Its TGI is > 100 µM.

Question: And the TGI [4]?
Answer: The TGI was > 30.6 µM.

Question: What about the TGI [5] of the same compound?
Answer: Its TGI is > 100 µM.

Question: What about the TGI [6] of the same compound?
Answer: The TGI was > 100 µM.

Question: And the TGI [7]?
Answer: The TGI was > 29.8 µM.

Question: What about the TGI [8] of the same compound?
Answer: The TGI was > 100 µM.

Question: What about the TGI [9] of the same compound?
Answer: The TGI was > 100 µM.

Question: And the TGI [10]?
Answer: The TGI was > 100 µM.

Question: What about the TGI [11] of the same compound?
Answer: The TGI was > 100 µM.

Question: And the TGI [12]?
Answer: The TGI was > 100 µM.

Question: Which results are given for `CN1CCN(CCCCN2c3ccccc3Sc3ccc(N=[N+]=[N-])cc32)CC1`?
Answer: TGI [1]: 5.61 µM; TGI [2]: 23.6 µM; TGI [3]: 22.6 µM; TGI [4]: 13.6 µM; TGI [5]: 29.9 µM; TGI [6]: 33.6 µM; TGI [7]: 29.8 µM; TGI [8]: 26.1 µM; TGI [9]: 22.1 µM; TGI [10]: 13.7 µM; TGI [11]: 22.1 µM; TGI [12]: 4.1 µM

Question: For `OC(C/C(=N\N=C(/CC(O)(C(F)(F)F)C(F)(F)F)c1ccccc1)c1ccccc1)(C(F)(F)F)C(F)(F)F`, which TGI [1] is on record?
Answer: Its TGI is > 10 µM.

Question: What about the TGI [2] of the same compound?
Answer: The TGI was > 10 µM.

Question: What about the TGI [3] of the same compound?
Answer: Its TGI is > 10 µM.

Question: And the TGI [4]?
Answer: Its TGI is > 10 µM.

Question: What about the TGI [5] of the same compound?
Answer: Its TGI is > 10 µM.

Question: And the TGI [6]?
Answer: Its TGI is > 10 µM.

Question: And the TGI [7]?
Answer: Its TGI is > 10 µM.

Question: What about the TGI [8] of the same compound?
Answer: Its TGI is > 10 µM.

Question: And the TGI [9]?
Answer: The TGI was > 10 µM.

Question: And the TGI [10]?
Answer: Its TGI is > 10 µM.

Question: And the TGI [11]?
Answer: Its TGI is > 10 µM.

Question: What about the TGI [12] of the same compound?
Answer: Its TGI is > 10 µM.

Question: How did the TGI [1] turn out when `O=C1C(=C(C(=O)c2ccccc2)C(=O)c2ccccc2)OC(c2ccccc2)=C1C(=O)c1ccccc1` was run?
Answer: The TGI was 24.9 µM.

Question: What about the TGI [2] of the same compound?
Answer: The TGI was 9.2 µM.

Question: What about the TGI [3] of the same compound?
Answer: The TGI was 23 µM.

Question: And the TGI [4]?
Answer: The TGI was 19.5 µM.

Question: What about the TGI [5] of the same compound?
Answer: Its TGI is 44.2 µM.

Question: And the TGI [6]?
Answer: The TGI was > 100 µM.

Question: And the TGI [7]?
Answer: The TGI was 15.7 µM.

Question: And the TGI [8]?
Answer: The TGI was 19.2 µM.

Question: And the TGI [9]?
Answer: Its TGI is 20.1 µM.

Question: What about the TGI [10] of the same compound?
Answer: Its TGI is 14.1 µM.

Question: What about the TGI [11] of the same compound?
Answer: Its TGI is 11.2 µM.

Question: And the TGI [12]?
Answer: Its TGI is 22.8 µM.

Question: Which TGI [1] does the source give for `CCCCCCCSCC1C(=O)C23C(O)C1CCC2C12COC3(O)C(O)C1C(C)(C)CCC2O` (centres undefined) here?
Answer: The TGI was 27.3 µM.

Question: And the TGI [2]?
Answer: The TGI was 25.3 µM.

Question: What about the TGI [3] of the same compound?
Answer: The TGI was 30.3 µM.

Question: And the TGI [4]?
Answer: The TGI was 3.04 µM.

Question: And the TGI [5]?
Answer: The TGI was 26.9 µM.

Question: What about the TGI [6] of the same compound?
Answer: Its TGI is 33.9 µM.

Question: What about the TGI [7] of the same compound?
Answer: The TGI was 31.1 µM.

Question: What about the TGI [8] of the same compound?
Answer: Its TGI is 23.6 µM.

Question: What about the TGI [9] of the same compound?
Answer: The TGI was 24.9 µM.

Question: And the TGI [10]?
Answer: The TGI was 18.7 µM.

Question: And the TGI [11]?
Answer: The TGI was 15.7 µM.

Question: And the TGI [12]?
Answer: Its TGI is 24 µM.

Question: What does the source list for `CC(C)(C)N(Cc1ccoc1)C(=O)/C=C\S(=O)c1ccccc1` (centres undefined)?
Answer: TGI [1]: 89.6 µM; TGI [2]: > 100 µM; TGI [3]: 26.2 µM; TGI [4]: 40.5 µM; TGI [5]: 68.1 µM; TGI [6]: 88.8 µM; TGI [7]: 32.1 µM; TGI [8]: 58.5 µM; TGI [9]: 86.5 µM; TGI [10]: 34.1 µM; TGI [11]: 27.6 µM; TGI [12]: 39.3 µM

Question: What does the source list for `Cc1ccc(S(=O)(=O)NC2=NS(=O)(=O)c3cc(C)c(Cl)cc3S2)cc1`?
Answer: TGI [1]: > 100 µM; TGI [2]: > 100 µM; TGI [3]: > 100 µM; TGI [4]: > 100 µM; TGI [5]: > 100 µM; TGI [6]: > 100 µM; TGI [7]: > 100 µM; TGI [8]: > 100 µM; TGI [9]: > 100 µM; TGI [10]: > 100 µM; TGI [11]: > 100 µM; TGI [12]: > 100 µM

Question: What does the source list for `CN(C)/C=C/c1ccncc1`?
Answer: TGI [1]: > 100 µM; TGI [2]: > 100 µM; TGI [3]: > 100 µM; TGI [4]: > 100 µM; TGI [5]: > 100 µM; TGI [6]: > 100 µM; TGI [7]: > 100 µM; TGI [8]: > 100 µM; TGI [9]: > 100 µM; TGI [10]: > 100 µM; TGI [11]: > 100 µM; TGI [12]: > 100 µM

Question: For `CCCCc1ccc(Nc2nc(N)c3ncn(COCCO)c3n2)cc1`, which TGI [1] is on record?
Answer: The TGI was 94.2 µM.

Question: What about the TGI [2] of the same compound?
Answer: Its TGI is > 100 µM.

Question: And the TGI [3]?
Answer: Its TGI is 40.3 µM.

Question: And the TGI [4]?
Answer: The TGI was 69.7 µM.

Question: And the TGI [5]?
Answer: The TGI was 88.7 µM.

Question: And the TGI [6]?
Answer: Its TGI is > 100 µM.

Question: And the TGI [7]?
Answer: The TGI was 92.6 µM.

Question: And the TGI [8]?
Answer: Its TGI is > 100 µM.

Question: What about the TGI [9] of the same compound?
Answer: Its TGI is 65.6 µM.

Question: And the TGI [10]?
Answer: Its TGI is 62.2 µM.

Question: And the TGI [11]?
Answer: Its TGI is > 100 µM.

Question: And the TGI [12]?
Answer: Its TGI is 38.5 µM.

Question: What does the source list for `CCOC(=O)C(=CNC(=S)Nc1c(CC)cccc1CC)C(=O)OCC`?
Answer: TGI [1]: > 100 µM; TGI [2]: > 100 µM; TGI [3]: > 100 µM; TGI [4]: > 100 µM; TGI [5]: > 100 µM; TGI [6]: > 100 µM; TGI [7]: > 100 µM; TGI [8]: > 100 µM; TGI [9]: > 100 µM; TGI [10]: > 100 µM; TGI [11]: > 100 µM; TGI [12]: > 100 µM

Question: Which results are given for `CC(C)c1ccc2[nH]c(O)c(C3=Nc4ccccc4C3=O)c2c1`?
Answer: TGI [1]: > 100 µM; TGI [2]: 12.8 µM; TGI [3]: 53.8 µM; TGI [4]: 97 µM; TGI [5]: 5.5 µM; TGI [6]: 57.2 µM; TGI [7]: > 100 µM; TGI [8]: > 100 µM; TGI [9]: 18.6 µM; TGI [10]: 68 µM; TGI [11]: > 100 µM; TGI [12]: 69.8 µM

Question: Which TGI [1] does the source give for `CCOC(=O)/C=C/c1c[nH]c(C(=O)OCC)c1` here?
Answer: Its TGI is > 100 µM.

Question: What about the TGI [2] of the same compound?
Answer: Its TGI is > 100 µM.

Question: And the TGI [3]?
Answer: The TGI was > 100 µM.

Question: What about the TGI [4] of the same compound?
Answer: Its TGI is > 100 µM.

Question: What about the TGI [5] of the same compound?
Answer: Its TGI is > 100 µM.

Question: And the TGI [6]?
Answer: Its TGI is > 100 µM.

Question: And the TGI [7]?
Answer: The TGI was > 100 µM.

Question: What about the TGI [8] of the same compound?
Answer: Its TGI is > 100 µM.

Question: What about the TGI [10] of the same compound?
Answer: Its TGI is > 100 µM.

Question: And the TGI [11]?
Answer: The TGI was > 100 µM.

Question: What about the TGI [12] of the same compound?
Answer: The TGI was > 100 µM.
